#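 All cell lines were grown in 96-well plates and treated with compound for 48 hours. At the GI50, growth is halved.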 The source made the active and inactive calls. No stated cut-off is given here; in the data, active = GI50 up to about 1.1 µM and inactive = higher.
# Key:
# Experiment in all cases: growth of human tumour cells (NCI), 48 h
# A549 = system: A549
# ACHN = system: ACHN
# COLO 205 = system: COLO 205
# HCC 2998 = system: HCC 2998
# HT-29 = system: HT-29
# IGROV-1 = system: IGROV-1
# K562 = system: K562
# M19-MEL = system: M19-MEL
# OVCAR-5 = system: OVCAR-5
# RPMI-8226 = system: RPMI-8226
# SK-MEL-2 = system: SK-MEL-2
# SW-620 = system: SW-620
# U-251 = system: U-251
# UACC-62 = system: UACC-62
# TK-10 = system: TK-10
# RXF 393 = system: RXF 393
# DU-145 = system: DU-145
# MDA-N = system: MDA-N
# NCI/ADR-RES = system: NCI/ADR-RES
# T47D = system: T47D
Structure (SMILES),GI50 (A549),GI50 (ACHN),GI50 (COLO 205),GI50 (HCC 2998),GI50 (HT-29),GI50 (IGROV-1),GI50 (K562),GI50 (M19-MEL),GI50 (OVCAR-5),GI50 (RPMI-8226),GI50 (SK-MEL-2),GI50 (SW-620),GI50 (U-251),GI50 (UACC-62),GI50 (TK-10),GI50 (RXF 393),GI50 (DU-145),GI50 (MDA-N),GI50 (NCI/ADR-RES),GI50 (T47D)
COc1ccc(CCc2cc(OC)c(O)c(OC)c2)cc1,47.1 µM (inactive),80.5 µM (inactive),> 100 µM (inactive),52 µM (inactive),41 µM (inactive),> 100 µM (inactive),33 µM (inactive),57.1 µM (inactive),44 µM (inactive),50.8 µM (inactive),53 µM (inactive),37.4 µM (inactive),41.8 µM (inactive),69 µM (inactive),,,,,,
COc1ccc(OC)c2c1C(=O)C1CC1(Br)C2=O (configuration not stated),> 100 µM (inactive),> 100 µM (inactive),> 100 µM (inactive),> 100 µM (inactive),> 100 µM (inactive),> 100 µM (inactive),> 100 µM (inactive),> 100 µM (inactive),> 100 µM (inactive),> 100 µM (inactive),> 100 µM (inactive),> 100 µM (inactive),> 100 µM (inactive),> 100 µM (inactive),> 100 µM (inactive),,,,,
COc1ccc(OC)c(NC(=O)C(=O)NNC(=O)c2sc(NNC(C)=O)nc2C)c1,31.2 µM (inactive),29.2 µM (inactive),,45.1 µM (inactive),35.6 µM (inactive),53.5 µM (inactive),17.1 µM (inactive),60.1 µM (inactive),72.4 µM (inactive),30.3 µM (inactive),43 µM (inactive),22.6 µM (inactive),36.6 µM (inactive),29.6 µM (inactive),88.3 µM (inactive),,,,,
O=c1c2ccccc2nc(-c2ccccc2)n1NC(=S)Nc1ccc(Cl)cc1[N+](=O)[O-],67.3 µM (inactive),> 100 µM (inactive),51.5 µM (inactive),,69.3 µM (inactive),> 100 µM (inactive),50.9 µM (inactive),54.1 µM (inactive),> 100 µM (inactive),80.5 µM (inactive),> 100 µM (inactive),> 100 µM (inactive),80.4 µM (inactive),39.7 µM (inactive),> 100 µM (inactive),22.9 µM (inactive),,,,
C=C[C@@H]1C(CO)=CCC2[C@H]1CCC1C(C)(C)C(=O)CC[C@]21C (some centres not stated),> 100 µM (inactive),> 100 µM (inactive),> 100 µM (inactive),> 100 µM (inactive),> 100 µM (inactive),> 100 µM (inactive),> 100 µM (inactive),,> 100 µM (inactive),> 100 µM (inactive),> 100 µM (inactive),> 100 µM (inactive),> 100 µM (inactive),> 100 µM (inactive),> 100 µM (inactive),> 100 µM (inactive),> 100 µM (inactive),> 100 µM (inactive),> 100 µM (inactive),> 100 µM (inactive)
CCCCC1CC(c2ccc(Cl)cc2)=NO1 (configuration not stated),> 100 µM (inactive),> 100 µM (inactive),> 100 µM (inactive),> 100 µM (inactive),> 100 µM (inactive),> 100 µM (inactive),> 100 µM (inactive),> 100 µM (inactive),> 100 µM (inactive),> 100 µM (inactive),> 100 µM (inactive),> 100 µM (inactive),> 100 µM (inactive),> 100 µM (inactive),> 100 µM (inactive),,,,,
c1cc2[se][se]c3c4cccc5[se][se]c(c(c1)c23)c54,> 100 µM (inactive),> 100 µM (inactive),> 100 µM (inactive),,> 100 µM (inactive),> 100 µM (inactive),> 100 µM (inactive),> 100 µM (inactive),> 100 µM (inactive),> 100 µM (inactive),> 100 µM (inactive),> 100 µM (inactive),> 100 µM (inactive),> 100 µM (inactive),> 100 µM (inactive),> 100 µM (inactive),,,,
CC(C)C(C(=O)O)N1C(=O)c2ccccc2C1=O (configuration not stated),> 100 µM (inactive),> 100 µM (inactive),> 100 µM (inactive),> 100 µM (inactive),> 100 µM (inactive),> 100 µM (inactive),> 100 µM (inactive),,> 100 µM (inactive),> 100 µM (inactive),0.18 µM (active),> 100 µM (inactive),> 100 µM (inactive),> 100 µM (inactive),> 100 µM (inactive),> 100 µM (inactive),> 100 µM (inactive),> 100 µM (inactive),> 100 µM (inactive),> 100 µM (inactive)
O=C(O)[C@H]1NC[C@@H]2ON=C(Br)[C@@H]21,> 100 µM (inactive),> 100 µM (inactive),> 100 µM (inactive),> 100 µM (inactive),> 100 µM (inactive),> 100 µM (inactive),> 100 µM (inactive),,> 100 µM (inactive),> 100 µM (inactive),> 100 µM (inactive),> 100 µM (inactive),> 100 µM (inactive),> 100 µM (inactive),> 100 µM (inactive),> 100 µM (inactive),> 100 µM (inactive),> 100 µM (inactive),> 100 µM (inactive),> 100 µM (inactive)
Cn1nc(-c2ccccc2)c(C(=O)/C=C/c2ccc(F)cc2)c(N2CCCC2)c1=O,15.1 µM (inactive),24.1 µM (inactive),15.1 µM (inactive),,4.99 µM (inactive),21.4 µM (inactive),7.82 µM (inactive),15.1 µM (inactive),,6.62 µM (inactive),,15.6 µM (inactive),13.2 µM (inactive),12.7 µM (inactive),24 µM (inactive),8.2 µM (inactive),,,,
CN1CCN(CCCCNc2cc3c4ccccc4c(NCCCCN4CCN(C)CC4)cc3c3ccccc23)CC1,1.37 µM (inactive),4.06 µM (inactive),2.36 µM (inactive),1.81 µM (inactive),1.95 µM (inactive),1.93 µM (inactive),1.57 µM (inactive),,5.56 µM (inactive),1.38 µM (inactive),5.05 µM (inactive),1.43 µM (inactive),1.68 µM (inactive),2.28 µM (inactive),6.95 µM (inactive),1.41 µM (inactive),1.67 µM (inactive),0.317 µM (active),2.47 µM (inactive),18.6 µM (inactive)
Clc1nc2c(N3CCCC3)nc(N3CCNCC3)nc2[nH]1,17.9 µM (inactive),19.9 µM (inactive),16.4 µM (inactive),15.9 µM (inactive),17.4 µM (inactive),17.9 µM (inactive),23.1 µM (inactive),,19.3 µM (inactive),21.3 µM (inactive),18.4 µM (inactive),21.2 µM (inactive),17.2 µM (inactive),17.4 µM (inactive),57.5 µM (inactive),14.1 µM (inactive),16.4 µM (inactive),17.6 µM (inactive),37.2 µM (inactive),16.9 µM (inactive)
CC(C)OC(=O)c1ccc(NCC2=CC(=O)C=CC2=O)cc1,44.3 µM (inactive),12 µM (inactive),3.8 µM (inactive),21.4 µM (inactive),16.4 µM (inactive),13.5 µM (inactive),2.35 µM (inactive),,19.4 µM (inactive),2.54 µM (inactive),17 µM (inactive),11.7 µM (inactive),16 µM (inactive),15.3 µM (inactive),15.3 µM (inactive),12.8 µM (inactive),16.6 µM (inactive),15.1 µM (inactive),13.5 µM (inactive),2.25 µM (inactive)
O=C1CC(=O)NC(NN2C(=O)CSC2c2ccc(Cl)cc2)=N1 (configuration not stated),> 100 µM (inactive),> 100 µM (inactive),> 100 µM (inactive),> 100 µM (inactive),34.1 µM (inactive),> 100 µM (inactive),> 100 µM (inactive),,> 100 µM (inactive),> 100 µM (inactive),> 100 µM (inactive),> 100 µM (inactive),36.4 µM (inactive),21.8 µM (inactive),> 100 µM (inactive),> 100 µM (inactive),> 100 µM (inactive),54.8 µM (inactive),> 100 µM (inactive),> 100 µM (inactive)
COCOc1ccc(C2(O)Oc3cc(OCOC)ccc3C2C)c(O)c1 (configuration not stated),15.9 µM (inactive),12.9 µM (inactive),18.2 µM (inactive),13.5 µM (inactive),18.1 µM (inactive),17.6 µM (inactive),10.7 µM (inactive),,17.1 µM (inactive),11.7 µM (inactive),18.4 µM (inactive),18.4 µM (inactive),15 µM (inactive),12.9 µM (inactive),17.9 µM (inactive),16.4 µM (inactive),13.1 µM (inactive),15.3 µM (inactive),13.5 µM (inactive),12.3 µM (inactive)
COc1cccc(/C=C/c2ccnc3ccccc23)c1OC,> 10 µM (inactive),> 10 µM (inactive),> 10 µM (inactive),> 10 µM (inactive),9.86 µM (inactive),> 10 µM (inactive),4.7 µM (inactive),,> 10 µM (inactive),2.27 µM (inactive),> 10 µM (inactive),> 10 µM (inactive),> 10 µM (inactive),> 10 µM (inactive),> 10 µM (inactive),> 10 µM (inactive),> 10 µM (inactive),4.94 µM (inactive),2.67 µM (inactive),8.17 µM (inactive)

# — ChEMBL document CHEMBL1201862, “PubChem BioAssay data set” (2004)
